Consider 21 compounds from ChEMBL document CHEMBL1147814, “Discovery of SB-705498: a potent, selective and orally bioavailable TRPV1 antagonist suitable for clinical development” (Bioorg Med Chem Lett, 2006).

The target in series [1] is Transient receptor potential cation channel subfamily V member 1 (Rattus norvegicus) (UniProt O35433). Description: Antagonist activity against capsaicin-mediated activation of rat TRPV1 by FLIPR. In kind it is functional.
Series [2] in a line: Aqueous solubility of the compound. In kind it is physicochemical.
In a further series the test system is Liver microsomes. The series can be described thus: (§1) Intrinsic clearance in human liver microsomes. The note with it: microsomes. In kind it is ADME, Microsome. (Microsomes from liver hold many membrane-bound enzymes, among them those of drug oxidation.)
The nature of series [3]: as §1. In kind it is ADME, Microsome. The following applies: liver microsomes.
Series [4] is described as follows: Half life in dog. It counts as ADME, organism-based, Canis lupus familiaris. The following applies: in vivo.
The nature of series [5]: Solubility in stimulated gastric fluid. The following applies: simulated gastric fluid. It counts as physicochemical.
Series [6] can be described thus: Clearance in rat. The note with it: in vivo. It counts as ADME, organism-based.
A short description of series [7]: Half life in guinea pig. It counts as ADME, organism-based, Cavia porcellus. The note with it: in vivo.
Series [8] can be described thus: Bioavailability in dog at 3 mg/kg, po. It counts as ADME, organism-based, Canis lupus familiaris. The following applies: in vivo.
A short description of series [9]: Clearance in guinea pig. The following applies: in vivo. In kind it is ADME, organism-based, Cavia porcellus.
For series [10], the target named is Transient receptor potential cation channel subfamily V member 1 (Homo sapiens) (UniProt Q8NER1). The series can be described thus: Inhibition of capsaicin-mediated activation of human TRPV1 in HEK293 cells at 1 uM by patch clamp method. In kind it is functional, cell-based. Background: Patch clamp records ionic current or voltage across a cell membrane.
The species entered for the next series is Cavia porcellus. Description: Intrinsic clearance in guinea pig liver microsomes. It counts as ADME, Microsome.
For series [11], the target named is Transient receptor potential cation channel subfamily V member 1 (Cavia porcellus) (UniProt Q6R5A3). The series can be described thus: Antagonist activity against capsaicin-mediated activation of guinea pig TRPV1 by FLIPR. It counts as functional.
Series [12] deals with Transient receptor potential cation channel subfamily V member 1 (Homo sapiens) (UniProt Q8NER1). Description: Blockade of pH activated human TRPV1 at 1 uM. In kind it is functional.
Series [13] addresses Transient receptor potential cation channel subfamily V member 1 (Rattus norvegicus) (UniProt O35433). Description: Activity against capsaicin-induced secondary hyperalgesia assessed as reversal of allodynia in rat at 30 mg/kg, po after 2 hrs. In kind it is functional, organism-based. More on the design: dose 30 mg/kg.
Series [14] deals with Transient receptor potential cation channel subfamily V member 1 (Homo sapiens) (UniProt Q8NER1). The series can be described thus: Blockade of heat activated human TRPV1 at 1 uM. In kind it is functional.
The nature of series [15]: Clearance in dog. It counts as ADME, organism-based, Canis lupus familiaris. The note with it: in vivo.
The nature of series [16]: Bioavailability in rat at 3 mg/kg, po. It counts as ADME, organism-based. The following applies: in vivo.
Series [17] in a line: Volume of distribution in dog. It counts as ADME, organism-based, Canis lupus familiaris. The note with it: in vivo, read-out: Vdss.
A short description of series [18]: Bioavailability in guinea pig at 1 mg/kg, po. The following applies: in vivo. It counts as ADME, organism-based, Cavia porcellus.
For a further series, the species on record is Canis familiaris. Description: Intrinsic clearance in dog liver microsomes. In kind it is ADME, Canis lupus familiaris, Microsome.
A short description of series [19]: Volume of distribution in guinea pig. It counts as ADME, organism-based, Cavia porcellus. The note with it: in vivo, read-out: Vdss.
A short description of series [20]: Half life in rat. In kind it is ADME, organism-based. The following applies: in vivo.
Series [21] addresses Transient receptor potential cation channel subfamily V member 1 (Rattus norvegicus) (UniProt O35433). Description: Activity against capsaicin-induced secondary hyperalgesia assessed as reversal of allodynia in rat at 10 mg/kg, po after 2 hrs. In kind it is functional, organism-based. The arrangement: dose 10 mg/kg.
Series [22] has as its target Transient receptor potential cation channel subfamily V member 1 (Cavia porcellus) (UniProt Q6R5A3). Description: Activity against adjuvant-induced arthritis assessed as reversal of allodynia in guinea pig at 10 mg/kg, po. In kind it is functional, organism-based. More on the design: dose 10 mg/kg.
Series [23] is described as follows: Volume of distribution in rat. It counts as ADME, organism-based. The note with it: in vivo, read-out: Vdss.
In series [24] the target is Transient receptor potential cation channel subfamily V member 1 (Homo sapiens) (UniProt Q8NER1). The series can be described thus: Inhibition of heat-mediated activation of human TRPV1 in HEK293 cells at 1 uM by patch clamp method.

≈ marks a conversion by molar mass, not a printed value. Calls of active or inactive are those of the source. No cut-off for these calls is given here. Where only a bound is given, the exact number is not on record here.

Transient receptor potential cation channel subfamily V member 1 (Rattus norvegicus), sequence (O35433 whole entry): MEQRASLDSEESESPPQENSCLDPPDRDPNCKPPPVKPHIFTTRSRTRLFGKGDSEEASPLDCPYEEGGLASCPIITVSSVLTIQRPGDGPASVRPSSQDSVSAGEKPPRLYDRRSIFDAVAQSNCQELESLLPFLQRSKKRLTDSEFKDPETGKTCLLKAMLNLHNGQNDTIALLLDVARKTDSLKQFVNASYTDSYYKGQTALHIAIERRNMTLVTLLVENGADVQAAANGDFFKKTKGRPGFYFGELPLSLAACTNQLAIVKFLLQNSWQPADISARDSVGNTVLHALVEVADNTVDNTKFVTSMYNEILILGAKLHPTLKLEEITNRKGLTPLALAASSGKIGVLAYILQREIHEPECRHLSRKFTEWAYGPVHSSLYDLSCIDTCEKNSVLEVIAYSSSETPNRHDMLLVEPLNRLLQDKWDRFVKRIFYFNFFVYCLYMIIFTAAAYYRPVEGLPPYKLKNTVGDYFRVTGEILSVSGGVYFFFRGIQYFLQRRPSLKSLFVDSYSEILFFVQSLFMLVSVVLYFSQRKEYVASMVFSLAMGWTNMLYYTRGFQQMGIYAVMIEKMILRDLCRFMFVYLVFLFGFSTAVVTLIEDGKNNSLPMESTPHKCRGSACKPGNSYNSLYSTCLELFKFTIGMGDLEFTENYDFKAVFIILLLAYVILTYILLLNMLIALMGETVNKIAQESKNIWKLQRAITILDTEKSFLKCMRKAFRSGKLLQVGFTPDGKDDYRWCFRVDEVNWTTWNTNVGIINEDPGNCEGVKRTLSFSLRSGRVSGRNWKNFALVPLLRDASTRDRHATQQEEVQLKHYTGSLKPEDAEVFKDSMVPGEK
Transient receptor potential cation channel subfamily V member 1 (Homo sapiens), sequence (Q8NER1 whole entry): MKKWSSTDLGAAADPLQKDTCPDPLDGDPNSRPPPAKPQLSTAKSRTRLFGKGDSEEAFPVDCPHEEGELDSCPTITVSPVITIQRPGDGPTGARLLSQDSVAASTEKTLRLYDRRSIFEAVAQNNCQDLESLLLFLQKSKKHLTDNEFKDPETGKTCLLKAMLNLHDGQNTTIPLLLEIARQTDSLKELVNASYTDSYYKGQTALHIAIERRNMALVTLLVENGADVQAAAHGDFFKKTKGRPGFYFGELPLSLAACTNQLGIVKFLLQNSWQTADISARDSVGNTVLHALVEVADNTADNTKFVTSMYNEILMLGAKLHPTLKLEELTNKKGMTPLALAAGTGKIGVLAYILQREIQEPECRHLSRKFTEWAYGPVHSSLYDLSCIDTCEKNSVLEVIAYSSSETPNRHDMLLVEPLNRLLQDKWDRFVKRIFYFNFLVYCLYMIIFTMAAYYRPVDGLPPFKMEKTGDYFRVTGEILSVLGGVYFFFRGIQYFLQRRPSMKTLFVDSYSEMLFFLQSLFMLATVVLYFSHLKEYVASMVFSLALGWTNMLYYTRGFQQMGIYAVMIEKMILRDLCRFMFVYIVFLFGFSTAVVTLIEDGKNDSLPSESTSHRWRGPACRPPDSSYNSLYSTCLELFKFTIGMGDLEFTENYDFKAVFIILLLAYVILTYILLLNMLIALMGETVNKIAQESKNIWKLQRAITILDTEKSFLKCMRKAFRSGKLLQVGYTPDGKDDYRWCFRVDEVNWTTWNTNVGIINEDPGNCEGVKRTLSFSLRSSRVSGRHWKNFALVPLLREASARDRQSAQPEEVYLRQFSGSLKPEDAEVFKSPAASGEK
Transient receptor potential cation channel subfamily V member 1 (Cavia porcellus), sequence (Q6R5A3 whole entry): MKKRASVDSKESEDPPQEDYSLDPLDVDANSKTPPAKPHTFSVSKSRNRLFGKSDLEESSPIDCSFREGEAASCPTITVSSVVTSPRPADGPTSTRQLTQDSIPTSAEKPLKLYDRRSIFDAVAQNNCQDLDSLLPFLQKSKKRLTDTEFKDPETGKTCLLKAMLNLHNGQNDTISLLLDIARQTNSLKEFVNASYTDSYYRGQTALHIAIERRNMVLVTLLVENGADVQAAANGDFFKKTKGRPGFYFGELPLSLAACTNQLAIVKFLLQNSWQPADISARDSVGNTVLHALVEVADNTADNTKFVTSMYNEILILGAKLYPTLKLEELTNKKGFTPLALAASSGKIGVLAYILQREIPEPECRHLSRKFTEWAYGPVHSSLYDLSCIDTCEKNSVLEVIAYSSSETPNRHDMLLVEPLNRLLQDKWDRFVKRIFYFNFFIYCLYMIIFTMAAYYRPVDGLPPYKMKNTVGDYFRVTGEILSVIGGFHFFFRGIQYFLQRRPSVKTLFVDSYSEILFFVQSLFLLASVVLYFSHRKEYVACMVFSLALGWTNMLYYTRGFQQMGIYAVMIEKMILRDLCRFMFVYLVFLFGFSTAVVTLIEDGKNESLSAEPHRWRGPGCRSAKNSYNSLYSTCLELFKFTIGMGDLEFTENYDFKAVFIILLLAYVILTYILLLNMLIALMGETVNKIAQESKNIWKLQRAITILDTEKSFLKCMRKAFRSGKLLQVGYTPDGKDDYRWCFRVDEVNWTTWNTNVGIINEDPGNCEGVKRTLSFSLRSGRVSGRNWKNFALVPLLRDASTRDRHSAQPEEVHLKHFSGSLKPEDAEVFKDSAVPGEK

The pKb is −log10 of the Kb, conventionally taken in molar units. As to `Cc1ccc(N2CC[C@@H](NC(=O)Nc3ccccc3Br)C2)nc1`, in series [1], the pKb is below 6.7.

Usually solubility stands for the concentration that dissolves in the medium under given conditions. A low value points to little dissolved substance. As for `O=C(Nc1ccccc1Br)N[C@@H]1CCN(c2ccc(F)c(F)c2)C1`, in [2], the solubility was below 100 µg/mL. The compound further showed a negative logarithm of the Kb (pKb) in series [1] of 8.1. In the series on Liver microsomes, the CL entry is on record as “<= 4 ml/min/g”.

`N#Cc1ccc(N2CC[C@@H](NC(=O)Nc3ccccc3Br)C2)nc1` registered a pKb in [1] of 6.7.

In [1], `O=C(Nc1ccccc1Br)N[C@@H]1CCN(c2ccccn2)C1` showed a pKb below 6.6.

The compound `O=C(Nc1ccccc1Br)N[C@@H]1CCN(c2ccc(Br)cn2)C1` had a pKb in [1] of 7.2.

A word on the CLint scaled: it is a measure of how fast metabolising enzymes remove a compound, apart from limits set by blood flow. For `O=C(NCCN1CCc2cc(F)ccc21)Nc1ccccc1Br`, in series [1], the pKb turned out to be 7.1. Besides, the CLint scaled in [3] was 19 mL/min/kg.

With `Cc1cccc2c1CCN2CCNC(=O)Nc1ccccc1Br`, the pKb in series [1] stood at 7.4.

In [1], `O=C(Nc1ccccc1Br)N[C@@H]1CCN(c2cccc(C(F)(F)F)n2)C1` gave a negative-log Kb (pKb) of 7.2.

The compound `O=C(NCCN1CCc2ccccc21)Nc1ccccc1Br` registered a pKb in series [1] of 6.8.

In turn, `O=C(Nc1ccccc1Br)N[C@@H]1CCN(c2cccc(F)c2)C1` yielded a solubility in [2] below 100 µg/mL. The compound further displayed a pKb in [1] of 7.8. The CL entry in the series with Liver microsomes was “<= 4 ml/min/g”.

The half-life is the time in which the quantity being followed falls by half. One may read the clearance as the rate of elimination divided by the concentration. A lower clearance goes with a low capacity for elimination. For orientation: bioavailability means the share of a dose that reaches the circulation, judged against a reference dose that is usually intravenous. The inhibition is the drop in the measured response relative to a control, in per cent. Consider `O=C(Nc1ccccc1Br)N[C@@H]1CCN(c2ccc(C(F)(F)F)cn2)C1` [SB-705498], for which the half-life was 3.4 h in series [4], 2.6 h in series [7] and 3.1 h in series [20]. For the same compound, the solubility in [5] was 400 µg/mL (≈ 932 µM). In addition, the clearance in [6] was determined as 4 mL/min/kg; in series [9], 34 mL/min/kg; in series [15], 11 mL/min/kg. Also, the bioavailability in series [8] is 42%; in [16], 86%; in [18], 39%. The figures for the pKb in [1] and in [11] were 7.5 and 7.3, respectively. For the same compound, in series [10], the inhibition was determined as 102%. For the same compound, the CL worked out at 4.2 mL/min/g in the series filed under Cavia porcellus and 0.9 mL/min/g in the series listed under Canis familiaris. Besides, the Activity in series [12] came out at 104%; in series [14], 97%; in series [22], 80%. Besides, the result in [13] and in [21] was Active. Also, the Vd in series [17] is 1.9 L/kg; in series [19], 3.6 L/kg; in series [23], 0.9 L/kg.

`Cc1cccc(N2CC[C@@H](NC(=O)Nc3ccccc3Br)C2)c1` yielded a solubility in [2] below 100 µg/mL. Also, the pKb in series [1] was 7.7. The result in [12], in series [24] and in series [14] was Active. Further, in the series on Liver microsomes, the CL entry is “<= 4 ml/min/g”.

As for `Cc1ccc2c(c1)CCCN2CCNC(=O)Nc1ccccc1Br`, the negative logarithm of the Kb (pKb) in series [1] stood at 7.4. In addition, in [3], the CLint scaled is above 45 mL/min/kg.

With `O=C(Nc1ccccc1Br)N[C@@H]1CCN(c2ccc(Cl)cn2)C1`, the pKb in series [1] stood at 7.3.

With `O=C(NCCN1CCc2c(F)cccc21)Nc1ccccc1Br`, the pKb in [1] is 7.4.

As to `O=C(Nc1ccccc1Br)N[C@@H]1CCN(c2cc(C(F)(F)F)ccn2)C1`, the pKb in series [1] was 6.9.

For `Cc1ccc(N2CC[C@@H](NC(=O)Nc3ccccc3Br)C2)cc1F`, the solubility in series [2] was below 100 µg/mL. This compound showed a pKb in series [1] of 8.3. Further, the CL result with Liver microsomes was “<= 4 ml/min/g”.

In series [1], `CCN(CCNC(=O)Nc1ccccc1Br)c1cccc(C)c1` showed a pKb of 7.8. This compound also displayed a CLint scaled in series [3] of 41 mL/min/kg.

With `Cc1cccc(N2CC[C@H](NC(=O)Nc3ccccc3Br)C2)c1`, the pKb in series [1] is below 6.8.

For the compound `Cc1ccc2c(c1)CCN2CCNC(=O)Nc1ccccc1Br`, the pKb in series [1] was determined as 7.3.

`O=C(Nc1ccccc1Br)N[C@@H]1CCN(c2ncccc2C(F)(F)F)C1` yielded a pKb in [1] of 7.1.
